{"source": "patent US20250017907A1", "about": "“METHOD FOR PREVENTING AND/OR TREATING LIVER FIBROSIS BY USING 6-METHOXYBENZOXAZOLINONE AND COIX LACHRYMA-JOBI L. EXTRACT COMPRISING 6-METHOXYBENZOXAZOLINONE” (Taichung District Agricultural Research and Extension …, priority 2023, published 2025)", "key": {"[1]": {"test_system": "TGF-β1-activated HSC-T6 cells", "experiment": "ROS detection assay (DCFDA)", "assay_type": "cell-based, rat", "conditions": "HSC-T6, TGF-β1, CX 10-100 μM, with increasing doses", "protocol": "The procedure of cell cultures is as follows. HSC-T6 cell is an immortalized cell line isolated from transformed SV40 large T-antigen transformed primary stellate cells of male Sprague-Dawley rats. HSC-T6 cells were maintained in Dulbecco's Modified Eagle Medium (DMEM, Sigma-Aldrich, USA) containing 8% fetal bovine serum (FBS, HyClone, USA), 100 U/mL of penicillin, and 100 μg/mL of streptomycin (Gibco, USA).\nFor hepatic stellate cell (HSC) activation, cells were cultured for 24 h and then replaced with serum-free medium for 24 h, after that, treated with transforming growth factor beta 1 (TGF-β1) (10 ng/mL) in the presence or absence of CX (10-100 μM) or adlay leaf, root, and seed extracts (25 and 50 μg/mL) for 24 h, or 30 min for intracellular signal pathways.\nThe procedure of ROS detection assay is as follows. 2′,7′-Dichlorofluorescein diacetate (DCFDA), a cell-permeable fluorogenic probe, is usually used to detect ROS and nitric oxide in live cells. DCFDA rapidly de-esterifies to form fluorescent 2′,7′-dichlorofluorescein (DCF) when it is oxidized by ROS in cells. For ROS detection, cells were seeded in the 96-well plate for 24 h, then starvation (culture in serum-free medium) and drug treatment, followed by changing the medium with DCFDA solution for 30 min, and detecting the excitation/emission spectra of 485/525 nm by multimode microplate readers (TECAN, Switzerland)."}, "[2]": {"test_system": "TAA-induced liver fibrotic C57BL/6J mice", "experiment": "Hydroxyproline assay of liver tissue", "assay_type": "in vivo", "conditions": "CX groups (20 and 50 mg/kg oral, 6 weeks); vs TAA group", "protocol": "For tests of adlay extracts, mice were randomly divided into the following seven groups (n=6, per group): (1) No treatment group (NT, normal diet), (2) Thioacetamide group (TAA, 200 mg/kg, normal diet), (3) 10% adlay seed powder (ASP) group, (4) 1% adlay leaf powder (ALP) group, (5) 1% adlay seed polysaccharide (ASPS) group, (6) 0.025% adlay seed ethanolic extract (ASE) group and (7) 0.1% ASE group. NT group received pure saline, and other groups intraperitoneally injected with TAA dissolved into saline thrice a week.\nFor tests of CX, mice were randomly divided into the following four groups (n=8, per group): (1) NT group, (2) TAA group (200 mg/kg), (3) CX group (CX20, 20 mg/kg), and (4) CX group (CX50, 50 mg/kg). NT group received pure saline, and other groups intraperitoneally injected with TAA dissolved into saline thrice a week. Moreover, NT group and TAA group also received 5% propylene glycol, while CX groups received CX dissolved into 5% propylene glycol (prepared in 0.9% saline) by oral gavage once per day. […]\nThe procedure of hydroxyproline assay is as follows. The hydroxyproline, as an indirect index of the collagen content in the liver, was determined by a hydroxyproline assay kit and the testing procedures followed the manufacturer's protocol. […] The hydroxyproline content was measured at a wavelength of 558 nm on an ELISA reader (TECAN, Switzerland). […]"}}}
{"smiles": "COc1ccc2[nH]c(=O)oc2c1", "note": "[CX, 6-methoxybenzoxazolinone]", "values": [{"measurement": "TGF-β1-induced ROS levels (DCFDA)", "setting": "[1]", "result": "reduced"}, {"measurement": "liver hydroxyproline content", "setting": "[2]", "result": "significantly lower"}]}
